Laboratory results: US20080138850A1, “Skin Model” (SYMRISE GmbH & Co. KG, priority 2006, published 2008)

How the values were obtained:
Assay type in all cases: cell-based
[1] = tested on: full thickness human skin; test: Skin pigmentation in full thickness human skin organ culture; conditions: beta arbutin 1% vs vehicle, day 6 of organ culture
From the text: FIG. 2(A) depicts human skin treated with beta arbutin 1% vs negative control (“vehicle”) at day 6 of organ culture.
Beta arbutin (hydroquinone glucoside), a recognized inhibitor of tyrosinase, has been selected as positive control for skin lightening.

[2] = tested on: pig skin samples; test: Skin pigmentation (melanin, Fontana-Masson staining) in pig skin organ culture; conditions: Pietrain dorsal pig skin, 1% w/v topical, re-applied daily
Procedure: For this experiment, full thickness pig skin has been excised from dorsal part of a pig with 30±5 follicles/cm^2 (age: 8 weeks; weight: 24 kg). The skin samples have been cut under sterile condition in smaller pieces (surface: 4×4; thickness: 3 mm) and placed in a 6 wells plate (two samples per well) over a sterilized cotton immerse in 5 ml of culture medium, incubated at 37° C., 5% CO2, 100% humidity, as described above. Culture medium has been renewed every other day.
Thus, 10 μl of beta arbutin (1% w/v in culture medium) per sample has been added topically and re-applied daily. As negative control, culture medium has been applied topically by following the same experimental procedures as for beta-arbutin. Six pig skin samples have been used for each treatment (i.e. beta arbutin and culture medium).
The pig skin samples were incubated for either 2 or 6 days respectively.
Following organ culture procedure, skin samples have been embedded in cryomedium by using liquid nitrogen. […]
The amount of melanin present in each slide has been evaluated by measuring the areas covered by the black spots, by using the software ImageJ (National Institute of Health, US). […]
The data from all samples of the same experimental group have been pooled and the means ±SEM calculated. The statistical significance (P-value) was been determined by Mann-Whitney U test for nonparametric samples. […]

[3] = tested on: hair follicle matrix cells in pig skin organ culture; test: Hair follicle matrix cell proliferation (Ki67/DAPI double staining) in pig skin organ culture; conditions: 25 ng/ml in culture medium
Procedure: For this experiment, full thickness skin samples had been excised from dorsal part of a pig with 30±5 follicles/cm^2 (age: 8 weeks; weight: 22 kg).
As a consequence, changes in the proliferation rate of hair follicles matrix cells have been investigated in pig skin organ culture following incubation with recognized modulators of hair growth.
Two different experimental procedures have been investigated:
I. In the first experiment, the pig skin samples had been incubated with the potential modulators from day 0 to day 6.
II. In the second experiment, the skin had been kept in culture until day 14. Then, the skin has been incubated with the potential modulators up day 21.
Following the organ culture procedure, skin samples had been embedded in cryomedium by using liquid nitrogen. Embedded samples had been cut in thin slides (thickness: 7 μm) and were then immunolabelled by performing Ki67/DAPI double staining to detect proliferative cells localized on the bulb region. In particular, while Ki67 labels proliferating cells, DAPI stains all cell nuclei. Quantitative analysis has been performed by using a custom modified version of the software ImageJ (National Institute of Health, US). The data from all samples of the same experimental group have been pooled and the means ±SEM calculated. The statistical significance (P-value) has been determined by Mann-Whitney U test for nonparametric samples. […]

**Q.** How did the “inhibition of skin pigmentation” value [1] turn out when `OC[C@H]1O[C@@H](Oc2ccc(O)cc2)[C@H](O)[C@@H](O)[C@@H]1O` [beta arbutin, hydroquinone glucoside] was run?
**A.** 31%

**Q.** And the “decrease of pigmentation in comparison to the negative control” value ([2]; after 2 days)?
**A.** 52.4%

**Q.** What about the “decrease of pigmentation in comparison to the negative control” value ([2]; after 6 days) of the same molecule?
**A.** 44.2%

B1: transforming growth factor beta 2 (protein, UniProt P61812 303-414, looked up)
Transforming growth factor …: ALDAAYCFRNVQDNCCLRPLYIDFKRDLGWKWIHEPKGYNANFCAGACPYLWSSDTQHSRVLSLYNTINPEASASPCCVSQDLEPLTILYYIGKTPKIEQLSNMIVKSCKCS
**Q.** Which results are given for B1?
**A.** inhibition of hair matrix cell proliferation versus untreated control ([3]; incubated day 0 to day 6, read at day 6): 24.8%; inhibition of hair matrix cell proliferation versus untreated control ([3]; incubated day 14 to day 21, read at day 21): 36.1%
